Test results reported in patent US6355633B1, “Aryl sulfonic acids and derivatives as FSH antagonists” (American Home Products Corporation, priority 1999, dated 2002).

biological target: T1, FSH receptor (Homo sapiens, UniProt P23945); assay: FSH Receptor Radioligand Membrane Binding Standard Pharmacological Test Procedure; set-up: expressed in transfected cells; conditions: [125I]FSH binding to membranes of CHO cells stably transfected with the human FSH receptor
T1 sequence (P23945 18-695): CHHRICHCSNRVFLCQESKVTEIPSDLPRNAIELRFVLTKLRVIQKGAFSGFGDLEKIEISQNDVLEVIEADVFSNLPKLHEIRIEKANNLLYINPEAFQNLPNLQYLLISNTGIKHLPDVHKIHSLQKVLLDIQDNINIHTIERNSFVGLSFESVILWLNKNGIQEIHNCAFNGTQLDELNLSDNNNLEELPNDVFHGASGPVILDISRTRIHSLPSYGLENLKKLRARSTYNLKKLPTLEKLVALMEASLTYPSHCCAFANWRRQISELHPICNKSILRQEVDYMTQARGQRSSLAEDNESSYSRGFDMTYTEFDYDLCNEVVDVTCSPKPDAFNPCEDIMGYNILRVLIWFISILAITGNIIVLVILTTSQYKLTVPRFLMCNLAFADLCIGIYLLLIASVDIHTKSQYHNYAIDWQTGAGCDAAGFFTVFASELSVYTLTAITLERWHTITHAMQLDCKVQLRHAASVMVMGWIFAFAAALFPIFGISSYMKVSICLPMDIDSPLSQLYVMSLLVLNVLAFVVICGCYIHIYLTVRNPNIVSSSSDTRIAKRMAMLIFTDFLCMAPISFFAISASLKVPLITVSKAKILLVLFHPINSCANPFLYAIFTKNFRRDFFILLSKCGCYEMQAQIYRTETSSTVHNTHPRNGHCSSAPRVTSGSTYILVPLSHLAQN
Description: FSH Receptor Radioligand Membrane Binding Standard Pharmacological Test Procedure
Membrane Source: Chinese hamster ovarian cells stably transfected with the human FSH receptor were cultured (Ultra CHO medium containing 1% fetal bovine serum and 200 μg/mL G418) in and harvested. Cells were collected by centrifugation and resulting cell pellets were frozen and stored at −70° C.
Membrane Receptor Preparation: Frozen cell pellets were weighed and resuspended in binding buffer to a final concentration of 30 mg wet weight/mL. Cell suspension for each pellet was homogenized using a Tempest homogenizer (setting=1; 5 strokes; VirTis, Gardiner, N.Y.). Cell homogenates were pooled and 35 mL aliquots were transferred to 50-mL polypropylene copolymer centrifuge tubes (Nalgene cat. #3110-0500). Tubes were spun at 12,000 rpm (SS34 rotor) for 12 min at 4° C. Resulting supernatant fractions were discarded and pellets were stored at −70° C. until use. On the day of the procedure, 35 mL binding buffer was added to each tube (35 mL membrane suspension was sufficient for three 96-well plates). The membrane pellet was dispersed by trituration using a pipet. The resulting suspension wass homogenized using a Tempest homogenizer (3 strokes at setting=1).
Receptor Binding Test procedure: Membrane homogenate (100 μl) was added to each well of a 96-well microtiter plate (Falcon # 3077). All reactions were tested in triplicate. Test compound solutions (50 μl) were added to the designated wells. Total bound counts were determined by adding 50 μl binding buffer containing 4% DMSO to the designated wells. […] Plates were pre-incubated for 15 min at room temperature on shaking platform (setting=3). After preincubation [^125I]FSH (50 μl) was added to each well and plates were incubated for 2 h at room temperature on shaking platform (setting=3). The reaction was terminated by transfer of the membrane preparation to glass fiber filters (Blue Mat #11740; 102×256 mm; Skatron Instruments, Sterling, Va.) that had been pretreated with 1% BSA in wash buffer for at least 30 min, but not longer than 1 h using a 96-well microtiter vacuum harvester (Skatron Instruments). The membrane preparation was washed with 5 cycles of ice-cold wash buffer (200 μl/well/cycle) followed by a pulse wash of 3 cycles (100 μl/well/cycle). The total wash volume per well was 1.3 mL. The filters were dried by a 10 sec aspiration. Disks corresponding to each well of the microtiter plate were punched out of the filter mat into 12×75 mm polypropylene tubes. The radioactivity present on each of the disks was measured using a gamma counter.
An FSH dose response curve (0.001, 0.01, 0.1, 1, 10, and 100 nM) was generated for each binding procedure to monitor procedure to procedrue variability.
FSH Receptor Radioligand Membrane Binding Procedure Buffers and Reagents
Binding buffer is prepared in 11 volumes containing Trizma-HCl, MgCl2, CaCl2 and sodium azide, the pH was adjusted to 7.2 with NaOH, and stored at 4° C. until use. BSA was weighed out on the day of the procedure and added to the amount of buffer required for the procedure (usually 150 mL). The protease inhibitors were prepared as 1 mg/mL stocks (aprotinin, leupeptin, and phosphoramidon were prepared in binding buffer without BSA and protease inhibitors; pepstatin and PMSF were prepared in methanol), stored in 1 mL aliquots at −70° C., and added to the binding buffer on the day of the procedure.
Wash buffer was prepared containing Trizma-HCl, MgCl2 and EDTA, the pH was adjusted to 7.2 with NaOH, and stored at 4° C.
Filter Soak Buffer (pH 7.2)
BSA was weighed out on the day of the procedure and added to 300 mL of wash buffer. The filter soak buffer was used for two procedures before being discarded.
A portion of the stock solution was diluted in binding buffer to a concentration of 200 pM.
FSH Solution for Determining Non-specific Binding: Purified human FSH was prepared as a 100 μM solution in binding buffer without protease inhibitors. […]

IC50 [µM]	Compound
4.8	CN(C)c1ccc(C(=O)Nc2ccc(/C=C/c3ccc(NC(=O)c4ccc(N(C)C)c(S(=O)(=O)N5CCOCC5)c4)cc3S(=O)(=O)O)c(S(=O)(=O)O)c2)cc1S(=O)(=O)N1CCOCC1 [Example 32n, 2,2′-[(E)-1,2-Ethenediyl]bis[5-[[4-(dimethylamino)-3-(4-morpholinylsulfonyl)benzoyl]amino]benzenesulfonic Acid]]
15	COC(=O)CSc1ccc(C(=O)Nc2ccc(/C=C/c3ccc(NC(=O)c4ccc(SCC(=O)OC)c(S(=O)(=O)N5CCOCC5)c4)cc3S(=O)(=O)O)c(S(=O)(=O)O)c2)cc1S(=O)(=O)N1CCOCC1 [Example 32p, [4-[4-(2-{4-[4-Methoxycarbonylmethanesulfanyl-3-(morpholine-4-sulfonyl)-benzoylamino]-2-sulfo-phenyl}-(E)-vinyl)-3-sulfo-phenylcarbamoyl]-2-(morpholine-4-sulfonyl)-phenylsulfanyl]-acetic Acid, Methyl Ester]
2.4	O=C(Nc1ccc(CCc2ccc(NC(=O)c3ccc(CC4CCCO4)c(S(=O)(=O)N4CCOCC4)c3)cc2S(=O)(=O)O)c(S(=O)(=O)O)c1)c1ccc(CC2CCCO2)c(S(=O)(=O)N2CCOCC2)c1 (stereo not shown) [Example 32q, 2,2′-(1,2-Ethanediyl)bis[5-[[4-(tetrahydro-2-furanmethyl)-3-(4-morpholinylsulfonyl)benzoyl]amino]benzenesulfonic Acid]]
6.9	O=C(Nc1ccc(/C=C/c2ccc(NC(=O)c3cccc(S(=O)(=O)N4CCOCC4)c3)cc2S(=O)(=O)O)c(S(=O)(=O)O)c1)c1cccc(S(=O)(=O)N2CCOCC2)c1 [Example 33a, 2,2′-[(E)-1,2-Ethenediyl]bis[5-[[3-(4-morpholinylsulfonyl)benzoyl]amino]benzenesulfonic Acid]]
4.5	O=C(Nc1ccc(/C=C/c2ccc(NC(=O)c3cccc(CN4CCOCC4)c3)cc2S(=O)(=O)O)c(S(=O)(=O)O)c1)c1cccc(CN2CCOCC2)c1 [Example 33b, 2,2′-[(E)-1,2-Ethenediyl]bis[5-[[3-(4-morpholinylmethyl)benzoyl]amino]benzenesulfonic Acid]]
20	COc1ccc(C(=O)Nc2ccc(-c3ccc(NC(=O)c4ccc(OC)c(S(=O)(=O)N5CCOCC5)c4)cc3S(=O)(=O)O)c(S(=O)(=O)O)c2)cc1S(=O)(=O)N1CCOCC1 [Example 33g, 4,4′-Bis[4-methoxy-3-(morpholine-4-sulfonyl)benzoylamino]biphenyl-2,2′-(bis)sulfonic Acid]
4.1	CS(=O)(=O)c1ccc(C(=O)Nc2ccc(/C=C/c3ccc(NC(=O)c4ccc(S(C)(=O)=O)c(N)c4)cc3S(=O)(=O)O)c(S(=O)(=O)O)c2)cc1N [Example 35, 2,2′-[(E)-1,2-Ethenediyl]bis[5-[[3-amino-4-(methylsulfonyl)benzoyl]amino]benzenesulfonic Acid]]
16	O=C(O)CS(=O)(=O)c1ccc(C(=O)Nc2ccc(C=Cc3ccc(NC(=O)c4ccc(S(=O)(=O)CC(=O)O)cc4)cc3S(=O)(=O)O)c(S(=O)(=O)O)c2)cc1 [Example 36a, [4-(4-{2-[4-(4-Carboxymethanesulfonyl-benzoylamino)-2-sulfo-phenyl]-vinyl}-3-sulfo-phenylcarbamoyl)-benzenesulfonyl]-acetic Acid]

Further lines, the compound ahead of its results:

Compound	IC50 [µM]
COCCNc1ccc(C(=O)Nc2ccc(/C=C/c3ccc(NC(=O)c4ccc(NCCOC)c(S(=O)(=O)N5CCOCC5)c4)cc3S(=O)(=O)O)c(S(=O)(=O)O)c2)cc1S(=O)(=O)N1CCOCC1 [Example 30l, 2,2′-[(E)-1,2-Ethenediyl]bis[5-[[4-[(2-methoxyethyl)amino]-3-(4-morpholinylsulfonyl)benzoyl]amino]benzenesulfonic Acid]]	3.9
O=C(Nc1ccc(/C=C/c2ccc(NC(=O)c3ccc(OCc4ccco4)c(S(=O)(=O)N4CCOCC4)c3)cc2S(=O)(=O)O)c(S(=O)(=O)O)c1)c1ccc(OCc2ccco2)c(S(=O)(=O)N2CCOCC2)c1 [Example 30u, 2,2′-[(E)-1,2-Ethenediyl]bis[5-[[4-(2-furanylmethoxy)-3-(4-morpholinylsulfony)benzoyl]amino]benzenesulfonic Acid]]	10
COC(=O)CS(=O)(=O)c1ccc(C(=O)Nc2ccc(C=Cc3ccc(NC(=O)c4ccc(S(=O)(=O)CC(=O)OC)cc4)cc3S(=O)(=O)O)c(S(=O)(=O)O)c2)cc1 [Example 32c, [4-(4-{2-[4-(4-Methoxycarbonylmethanesulfonyl-benzoylamino)-2-sulfo-phenyl]-vinyl}-3-sulfo-phenylcarbomoyl)-benzenesulfonyl]-acetic Acid, Methyl Ester]	6.9
COC(=O)CS(=O)(=O)c1cccc(C(=O)Nc2ccc(C=Cc3ccc(NC(=O)c4cccc(S(=O)(=O)CC(=O)OC)c4)cc3S(=O)(=O)O)c(S(=O)(=O)O)c2)c1 [Example 32d, [3-(4-{2-[4-(3-Methoxycarbonylmethanesulfonyl-benzoylamino)-2-sulfo-phenyl]-vinyl}-3-sulfo-phenylcarbomoyl)-benzenesulfonyl]-acetic Acid, Methyl Ester]	12.5
CS(=O)(=O)Cc1ccc(C(=O)Nc2ccc(/C=C/c3ccc(NC(=O)c4ccc(CS(C)(=O)=O)cc4)cc3S(=O)(=O)O)c(S(=O)(=O)O)c2)cc1 [Example 32g, 2,2′-[(E)-1,2-Ethenediyl]bis[5-[[4-[(methylsulfonyl)methyl]benzoyl]amino]benzenesulfonic Acid]]	5.3
O=C(Nc1ccc(/C=C/c2ccc(NC(=O)c3ccc(N4CCOCC4)c(S(=O)(=O)N4CCOCC4)c3)cc2S(=O)(=O)O)c(S(=O)(=O)O)c1)c1ccc(N2CCOCC2)c(S(=O)(=O)N2CCOCC2)c1 [Example 32k, 2,2′-[(E)-1,2-Ethenediyl]bis[5-[[4-(4-morpholinyl)-3-(4-morholinylsulfonyl)benzoyl]amino]benzenesulfonic Acid]]	7
COCCSc1ccc(C(=O)Nc2ccc(/C=C/c3ccc(NC(=O)c4ccc(SCCOC)c(S(=O)(=O)N5CCOCC5)c4)cc3S(=O)(=O)O)c(S(=O)(=O)O)c2)cc1S(=O)(=O)N1CCOCC1 [Example 32l]	4.1
COCCN(CCOC)c1ccc(C(=O)Nc2ccc(/C=C/c3ccc(NC(=O)c4ccc(N(CCOC)CCOC)c(S(=O)(=O)N5CCOCC5)c4)cc3S(=O)(=O)O)c(S(=O)(=O)O)c2)cc1S(=O)(=O)N1CCOCC1 [Example 32m, 2,2′-[(E)-1,2-Ethenediyl]bis[5-[[4-[bis(2-methoxyethyl)amino]-3-(4-morpholinylsulfonyl)benzoyl]amino]benzenesulfonic Acid]]	4.9
